Entries after “also recorded” stand apart in the source; their conditions may differ.
Experiments:
Type in all cases: in vivo, mouse
Oprm1^−/− mice [1] = test: Marble-burying
Experimental: (§1) Mice were treated with vehicle (NaCl 0.9%; ip, 10 or 20 ml/kg), NaBr (Sigma-Aldrich, Saint-Quentin Fallavier, France) administered either chronically (once a day, 10, 30, 70, 125, 250 and 500 mg/kg; i.p. or per os, in a volume of 20 ml/kg—except for combination with VU0155041: […]) or acutely (250 mg/kg, 20 ml/kg), KBr (Sigma-Aldrich, Saint-Quentin Fallavier, France; 145 mg/kg; i.p., 20 ml/kg), bumetanide (R&D systems, Minneapolis, USA, 0.5 and 2 mg/kg; i.p., 20 ml/kg) or VU0155041 (Cayman Chemicals, Ann Arbor, USA, once a day, i.p., 1 mg/kg, 10 ml/kg). […] When treatment was given chronically, behavioral testing started 8 days after beginning of daily administration. Treatment was maintained for 8 to 18 consecutive days (see timelines in FIGS. 1 and 4), allowing thorough behavioral phenotyping. On testing days, or when treatment was given acutely, drugs (or vehicle) were administered 30 min before behavioral assays.
Marble-burying. Marble burying was used as a measure of perseverative behavior (68). Mice were introduced individually in transparent cages (21×11×17 cm) containing 20 glass marbles (diameter: 1.5 cm) evenly spaced on 4-cm deep fresh sawdust. To prevent escapes, each cage was covered with a filtering lid. Light intensity in the room was set at 40 lux. The animals were removed from the cages after 15 min, and the number of marbles buried more than half in sawdust was quoted.

Oprm1^−/− mice [2] = test: Motor stereotypies
Experimental: as §1
Motor stereotypies. To detect motor stereotypies in mutant versus wild-type animals, mice were individually placed in clear standard home cages (21×11×17 cm) filled with 3-cm deep fresh sawdust for 10 min (64). Light intensity was set at 30 lux. Trained experimenters scored numbers of head shakes, as well as rearing, burying, grooming, circling episodes and total time spent burying by direct observation.

Shank3^Δex13-16−/− mice = test: Y-maze exploration; settings: Shank3Δex13-16−/− mice; chronic NaBr 250 mg/kg once daily
Experimental: as §1
(§2) Y-maze exploration. Spontaneous alternation behavior was used to assess perseverative behavior (65-67). Each Y-maze consisted of three connected Plexiglas arms (15×15×17 cm) covered with distinct wall patterns (15 lx). Floors were covered with lightly sprayed fresh sawdust to limit anxiety.
(§3) To this purpose, we evaluated the effects of chronic NaBr administration at the dose of 250 mg/kg on autism-sensitive behaviors in these lines (FIG. 3A).

Fmr1^−/− mice = test: Y-maze exploration; settings: chronic NaBr 250 mg/kg once daily
Experimental: as §1, §2, §3

Oprm1^−/− mice [3] = test: Y-maze exploration; settings: chronic NaBr 10-500 mg/kg or bumetanide 0.5 and 2 mg/kg
Experimental: as §1
Y-maze exploration. Spontaneous alternation behavior was used to assess perseverative behavior (65-67). Each Y-maze consisted of three connected Plexiglas arms (15×15×17 cm) covered with distinct wall patterns (15 lx). Floors were covered with lightly sprayed fresh sawdust to limit anxiety. Each mouse was placed at the center of a maze and allowed to freely explore this environment for 5 min. The pattern of entries into each arm was quoted on video-recordings. Spontaneous alternations (SPA), i.e. successive entries into each arm forming overlapping triplet sets, alternate arm returns (AAR) and same arm returns (SAR) were scored, and the percentage of SPA, AAR and SAR was calculated as following: total/(total arm entries−2)*100.

[4] = system: gene expression in Oprm1 null mice (NAc, CPu, VP/Tu, MeA, VTA/SNc); test: Real-time quantitative PCR of brain reward/social circuit regions
Experimental: Brains were removed and placed into a brain matrix (ASI Instruments, Warren, MI, USA). Nucleus accumbens (NAc), caudate putamen (CPu), ventral pallidum/olfactory tubercle (VP/Tu), medial nucleus of the amygdala (MeA) and ventral tegmental area/substancia nigra pars compacta (VTA/SNc) were punched out/dissected from 1 mm-thick slices (data not shown). Tissues were immediately frozen on dry ice and kept at −80° C. until use. For each structure of interest, genotype and condition, samples were processed individually (n=8). RNA was extracted and purified using the Direct-Zol RNA MiniPrep kit (Zymo research, Irvine, USA). cDNA was synthetized using the ProtoScript II Reverse Transcriptase kit (New England BioLabs, Évry-Courcouronnes, France). qRT-PCR was performed in quadruplets on a CFX384 Touch Real-Time PCR Detection System (Biorad, Marnes-la-Coquette, France) using iQ-SYBR Green supermix (Bio-Rad) kit with 0.25 μl cDNA in a 12 μl final volume in Hard-Shell Thin-Wall 384-Well Skirted PCR Plates (Bio-rad). Gene-specific primers were designed using Primer3 software to obtain a 100- to 150-bp product. Relative expression ratios were normalized to the level of actin and the 2^−ΔΔCt method was applied to evaluate differential expression level. Gene expression values differing of the mean by more than two standard deviations were considered as outliers and excluded from further calculations.
To shed light on the molecular mechanism involved in beneficial effects of chronic sodium bromide administration, we assessed the effects of a 2-week NaBr treatment on gene expression in Oprm1 null mice across five regions of the brain reward/social circuit: NAc, CPu, VP/Tu, MeA and VTA/SNc. Mice underwent a first session of social interaction after one week under treatment and a second 45 min before sacrifice for qRT-PCR experiment (data not shown). We focused primarily on genes coding for chloride transporters (Slc12a2 [NKCC1], Slc12a4, 5, 6, 7 [KCC1,2,3,4, respectively], ClCa1), GABAA receptor subunits (Gabra1, 2, 3, 4, 5, Gabrb1, 2) and glutamate receptors (Grm2, 4, 5) and subunits (Grin2a, 2b). In addition, we evaluated the expression of marker genes of neuronal expression and plasticity (Fos, Bdnf), social behavior (Oxt) and striatal projection neurons (SPNs; Crh, Drd1a, Drd2, Htr6, Pdyn, Penk).

[5] = Oprm1−/− mice, chronic NaBr 10-500 mg/kg or bumetanide 0.5 and 2 mg/kg
[6] = Oprm1+/+ mice, chronic NaBr 10-500 mg/kg

[Br-].[Na+] [NaBr, sodium bromide]
excessive marble burying (Oprm1^−/− mice [1]; [5]): did not suppressed excessive burying in mutant mice
number of buried marbles, global treatment effect (Oprm1^−/− mice [1]; both mouse lines, chronic NaBr): globally increased burying
number of grooming episodes in wild-type controls (Oprm1^−/− mice [2]; [6]): dose-dependently increased the number of grooming episodes; also recorded: at 500 mg/kg increased the frequency of grooming episodes and head shakes
number of head shakes in wild-type controls (Oprm1^−/− mice [2]; [6]): dose-dependently increased; also recorded: at 500 mg/kg increased the frequency of grooming episodes and head shakes
number of head shakes (Oprm1^−/− mice [2]; [5]): decreased under NaBr treatment since the lowest dose; also recorded: less consistently reduced the number of head shakes (doses over 125 mg/kg)
stereotypic circling episodes (Oprm1^−/− mice [2]; [5]): decreased under NaBr treatment since the lowest dose
number of rearing episodes (Oprm1^−/− mice [2]; both mouse lines (Oprm1−/− and Oprm1+/+), chronic NaBr or bumetanide): increased the number of rearing episodes in a dose-dependent manner
perseverative same arm returns (Shank3^Δex13-16−/− mice): suppressed under chronic bromide
perseverative same arm returns (Fmr1^−/− mice): suppressed under chronic bromide
perseverative same arm returns (Oprm1^−/− mice [3]): suppressed perseverative same arm returns from the dose of 70 mg/kg
perseverative same arm returns (Oprm1^−/− mice [3]; listed as bromide): decreased the number of perseverative same arm returns in Oprm1 null mice to wild-type levels since the dose of 30 mg/kg
ClCa1 transcription ([4]; CPu, mice of both genotypes, 2-week NaBr): increased ClCa1 transcription in mice of both genotypes
Oxt expression ([4]; MeA and VTA/SNc, 2-week NaBr): induced Oxt expression in the MeA and VTA/SNc
expression of chloride transporter genes ([4]; Oprm1−/− mice, 2-week NaBr treatment, qRT-PCR): increased the expression of all tested chloride transporters in Oprm1^−/− mice
expression of Gabra3, Gabra4, Gabra5, Gabrg1 and Gabrb2 ([4]; Oprm1−/− mice, CPu, 2-week NaBr): consistently upregulated the expression of Gabra3, Gabra4, Gabra5, Gabrg1 and Gabrb2 in the CPu of mutant mice
Oxt mRNA levels ([4]; Oprm1−/− mice, NAc (former) and VP/Tu (latter), 2-week NaBr): normalized by NaBr in the former and partially in the latter
Gabra2 expression ([4]; Oprm1−/− mice, NAc and CPu (left high in VP/Tu and MeA), 2-week NaBr): stimulated the expression of Gabra2
Slc12a5 expression ([4]; Oprm1−/− mice, NAc, CPu and MeA, 2-week NaBr): up-regulated the expression of Slc12a5 and Slc12a7
Slc12a7 expression ([4]; Oprm1−/− mice, NAc, CPu, MeA and VP/Tu, 2-week NaBr): up-regulated the expression of Slc12a5 and Slc12a7
Fos expression ([4]; Oprm1−/− mice, NAc, VP/Tu, CPu, 2-week NaBr): down-regulated the expression of the early gene Fos in the NAc and VP/Tu and maintained it low in the CPu
ClCa1 mRNA levels ([4]; Oprm1−/− mice, NAc, VP/Tu, MeA, VTA/SNc, 2-week NaBr): normalized by NaBr treatment in the NAc, increased in the VP/Tu and maintained high in the MeA and VTA/SNc
Slc12a2 expression ([4]; Oprm1−/− mice, decreased in all brain regions but the VP/Tu before treatment, 2-week NaBr): normalized under bromide treatment
Grm4 expression ([4]; all brain regions but the VTA/SNc of Oprm1−/− mice, and NAc of wild-type controls, 2-week NaBr): upregulated the expression of Grm4
